The text below walks through data of patent US20230357320A1, “HELICAL STAPLED PEPTIDES AND USES THEREOF” (FOG PHARMACEUTICALS, INC., priority 2020, published 2023).

For series [1] the following is noted: for % Retention: PAMPA. For orientation: The PAMPA barrier holds no transporters, so it reflects passive diffusion.
A short description of another series: in vitro. On the set-up: dose or concentration left out as unconfirmed. As to conditions: PAMPA, pH 7.4, PAMPA Pe.
Series [2] in a line: CHI Log D measurement (chromatographic hydrophobicity index). As to conditions: for chromatographic logD: pH 7.4.
Procedure: Finally, to measure hydrophobicity, a CHI Log D measurement assay was employed. […] The retention time measurements were performed using reverse-phase HPLC and Q-Exactive mass spectrometer with Phenomenex Gemini C-18 column (3 uM, 50×3 mm). The reverse-phase chromatography was performed using a gradient of 10 mM ammonium acetate at pH=7.4 and acetonitrile solvents. Using the identical solvent setup, gradient, and flowrate, ProLock stapled peptides were injected onto the column to determine the tR of peptides. Using the calibration curve shown in FIG. 7, tR is converted into CHI. CHI was converted into CHI Log D using the following equation.

Starred links: 1 amine or outer side, 2 acyl side, 3 side chain; linkers in the order of their positions; H or OH if unused. Positions of bridges follow the written chain, without caps; N, C: chain ends. Non-standard residues stand in square brackets, D forms with d. Residues, ends and D or L forms follow the SMILES beside them. X1 = O=C([C@]1(CC=[*:3])CCCN1[*:1])[*:2]; αAllylPro = C=CC[C@@]1(C(=O)O)CCCN1; Ala(cPr) = N[C@@H](CC1CC1)C(=O)O; S5 = C=CCCC[C@](C)(N)C(=O)O
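Throughout, for % Retention: Phospholipid-membrane PAMPA, donor and acceptor in DPBS pH 7.4 with 5% DMSO, 37 °C for 5 h, compound in each well quantified by reverse-phase HPLC-MS.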
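Throughout, for PAMPA Pe (text): Phospholipid-membrane PAMPA, donor and acceptor in DPBS pH 7.4 with 5% DMSO, 37 °C for 5 h, compound in each well quantified by reverse-phase HPLC-MS.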
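Throughout, for Papp: Phospholipid-membrane PAMPA, donor and acceptor in DPBS pH 7.4 with 5% DMSO, 37 °C for 5 h, compound in each well quantified by reverse-phase HPLC-MS.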

As for `CNC(=O)[C@H](CC(=O)O)NC(=O)[C@H](CCC(N)=O)NC(=O)[C@H](CC(C)C)NC(=O)[C@H](CC(C)C)NC(=O)[C@H](Cc1ccc(O)cc1)NC(=O)[C@]1(C)CCCC=CCCC[C@](C)(NC(C)=O)C(=O)N[C@@H](C)C(=O)N[C@@H](CC2CC2)C(=O)N[C@@H](CC(C)C)C(=O)N1` [PLL7-7 variant 4, Ac-S5-Ala-Cpa-Leu-S5-Tyr-Leu-Leu-Gln-Asp-NHMe] (Ac-[S5]A[Ala(cPr)]L[S5]YLLQD-NHMe; staple 1-5), the “% Retention” value in series [1] was 75 ± 1%. Further, the Papp at 5 h in “in vitro” was no more than 0.1 ×10⁻⁶ cm/s. In series [2], this molecule came in with a chromatographic logD of 2.4.
As for `C=CCCC[C@](C)(NC(=O)[C@H](CC(C)C)NC(=O)[C@H](CC(C)C)NC(=O)[C@]1(CC=C)CCCN1C(C)=O)C(=O)N[C@@H](Cc1ccc(O)cc1)C(=O)N[C@@H](CC(C)C)C(=O)N[C@@H](CC(C)C)C(=O)N[C@@H](CC(=O)O)C(=O)NC` [PLL4-10 variant 5, Ac-PL3-Leu-Leu-S5-Tyr-Leu-Leu-Asp-NHMe] (Ac-[αAllylPro]LL[S5]YLLD-NHMe), the “% Retention” value in series [1] is 70 ± 2%. Also, the apparent permeability (Papp) at 5 h in the series “in vitro” was determined as 0.2 ± 0.1 ×10⁻⁶ cm/s. The chromatographic logD in series [2] was 2.8.
Taken in the same sequence, the figures for `CNC(=O)[C@H](CC(=O)O)NC(=O)[C@H](Cc1c[nH]cn1)NC(=O)[C@H](CC(C)C)NC(=O)[C@H](CC(C)C)NC(=O)[C@H](CCCNC(=N)N)NC(=O)[C@]1(C)CCCC=CC[C@]2(CCCN2C(C)=O)C(=O)O[C@@H](CC(C)C)C(=O)N[C@@H](CC(C)C)C(=O)N1` (single isomer, unassigned) [PLL7-9 variant 2, Ac-PL3-Lec-Leu-S5-Arg-Leu-Leu-His-Asp-NHMe] were 82 ± 2%, 0.3 ± 0.1 ×10⁻⁶ cm/s and 2.4.
On to `CC(=O)N1CCC[C@]12CC=CCCC[C@@](C)(C(=O)N[C@@H](Cc1c[nH]cn1)C(=O)N[C@@H](CC(C)C)C(=O)N[C@@H](CC(C)C)C(=O)N[C@@H](CC(N)=O)C(N)=O)NC(=O)[C@H](CC(C)C)NC(=O)[C@H](C)NC2=O` (single isomer, unassigned) [PLL7-20 variant 3, Ac-PL3-Ala-Leu-S5-His-Leu-Leu-Asn-NH2], for which the “% Retention” value in series [1] was 76 ± 10%. This molecule came in with a Papp at 5 h in “in vitro” of 0.5 ± 0.2 ×10⁻⁶ cm/s. Besides, the chromatographic logD in series [2] is 2.1.
Taken in the same sequence, the figures for `C=CCCC[C@](C)(NC(=O)[C@H](CC(C)C)NC(=O)[C@H](CCCCN)NC(=O)[C@]1(CC=C)CCCN1C(C)=O)C(=O)N[C@@H](CC(N)=O)C(=O)N[C@@H](CC(C)C)C(=O)N[C@@H](CC(C)C)C(=O)N[C@H](C(=O)N[C@@H](Cc1ccc(O)cc1)C(=O)NC)[C@@H](C)O` [PLL4-5 variant 5, Ac-PL3-Lys-Leu-S5-Asn-Leu-Leu-Thr-Tyr-NHMe] (Ac-[αAllylPro]KL[S5]NLLTY-NHMe) were 73 ± 4%, no more than 0.1 ×10⁻⁶ cm/s and 2.3.
For the molecule `CCCC[C@H](NC(=O)[C@H](CC(C)C)NC(=O)[C@]1(C)CCCC=CC[C@]2(CCCN2C(C)=O)C(=O)N[C@@H](C)C(=O)N[C@@H](CC(C)C)C(=O)N1)C(=O)N[C@@H](CC(C)C)C(=O)N[C@@H](C)C(=O)N[C@@H](Cc1ccc(O)cc1)C(=O)NC` (single isomer, unassigned) [PLL4-6, Ac-PL3-Ala-Leu-S5-Leu-Nle-Leu-Ala-Tyr-NHMe], the “% Retention” value in series [1] turned out to be 48 ± 3%. In the series “in vitro”, this molecule came in with a Papp at 5 h of no more than 0.1 ×10⁻⁶ cm/s. Besides, the chromatographic logD in series [2] was 4.
Regarding `CNC(=O)[C@H](CC(=O)O)NC(=O)[C@H](CC(C)C)NC(=O)[C@H](CC(C)C)NC(=O)[C@H](Cc1ccc(O)cc1)NC(=O)[C@]1(C)CCCC=CCCC[C@](C)(NC(C)=O)C(=O)N[C@@H](C)C(=O)N[C@@H](CC(C)C)C(=O)N[C@@H](CC(C)C)C(=O)N1` [PLL4-10 variant 4, Ac-S5-Ala-Leu-Leu-S5-Tyr-Leu-Leu-Asp-NHMe] (Ac-[S5]ALL[S5]YLLD-NHMe; staple 1-5), the “% Retention” value in series [1] was determined as 74 ± 6%. In the series “in vitro”, this molecule yielded a Papp at 5 h of no more than 0.1 ×10⁻⁶ cm/s. In addition, in series [2], the chromatographic logD turned out to be 2.9.
Take `CNC(=O)[C@H](CC(=O)O)NC(=O)[C@H](CC(C)C)NC(=O)[C@H](CC(C)C)NC(=O)[C@H](Cc1ccc(O)cc1)NC(=O)[C@]1(C)CCCC=CC[C@]2(CCCN2)C(=O)N[C@@H](CC(C)C)C(=O)N[C@@H](CC(C)C)C(=O)N1` (single isomer, unassigned) [PLL4-10 variant 1, H-PL3-Leu-Leu-S5-Tyr-Leu-Leu-Asp-NHMe]: in series [1], the “% Retention” value was found to be 66 ± 2%. The molecule also came in with a Papp at 5 h in the series “in vitro” of 0.3 ± 0.1 ×10⁻⁶ cm/s. The molecule also registered a chromatographic logD in series [2] of 2.2.
With `C=CCCC[C@](C)(NC(=O)[C@H](CC(C)C)NC(=O)[C@H](CC(C)C)NC(=O)[C@]1(CC=C)CCCN1C(C)=O)C(=O)N[C@@H](Cc1ccc(O)cc1)C(=O)N[C@@H](CC(C)C)C(=O)N[C@@H](CC(C)C)C(=O)N[C@@H](CC(=O)O)C(=O)N[C@@H](CC(=O)O)C(=O)NC` [PLL5-2 variant 5, Ac-PL3-Leu-Leu-S5-Tyr-Leu-Leu-Asp-Asp-NHMe] (Ac-[αAllylPro]LL[S5]YLLDD-NHMe), in series [1], the “PAMPA Pe (text)” value is 1.7 ×10⁻⁶ cm/s and the “% Retention” value was determined as 90 ± 3%. In the series “in vitro”, this molecule had a Papp at 5 h of 1.7 ± 0.4 ×10⁻⁶ cm/s. Moreover, the chromatographic logD in series [2] is 1.8.
For the molecule `CNC(=O)[C@H](CCC(N)=O)NC(=O)[C@H](CC(C)C)NC(=O)[C@H](CC(C)C)NC(=O)[C@H](Cc1ccc(O)cc1)NC(=O)[C@]1(C)CCCC=CC[C@]2(CCCN2C(C)=O)C(=O)N[C@@H](CC(C)C)C(=O)N[C@@H](CC(C)C)C(=O)N1` [PLL5-12, Ac-PL3-Leu-Leu-S5-Tyr-Leu-Leu-Gln-NHMe] (Ac-[X1]LL[S5]YLLQ-NHMe; staple 1-4), in series [1], the “% Retention” value stood at 97 ± 1%. The molecule further registered an apparent permeability (Papp) at 5 h in “in vitro” of no more than 0.1 ×10⁻⁶ cm/s. In addition, in series [2] (reverse-phase HPLC, Phenomenex Gemini C-18 column), the chromatographic logD turned out to be 3.2.
As for `CNC(=O)[C@H](Cc1ccc(O)cc1)NC(=O)[C@@H](NC(=O)[C@H](CC(C)C)NC(=O)[C@H](CC(C)C)NC(=O)[C@H](CC(N)=O)NC(=O)[C@]1(C)CCCC=CC[C@]2(CCCN2)C(=O)N[C@@H](CCCCN)C(=O)N[C@@H](CC(C)C)C(=O)N1)[C@@H](C)O` (single isomer, unassigned) [PLL4-5 variant 1, H-PL3-Lys-Leu-S5-Asn-Leu-Leu-Thr-Tyr-NHMe], the “% Retention” value in series [1] turned out to be 52 ± 8%. This molecule showed a Papp at 5 h in “in vitro” of no more than 0.1 ×10⁻⁶ cm/s. The molecule also came in with a chromatographic logD in series [2] of 1.5.
For `CNC(=O)[C@H](CC(=O)O)NC(=O)[C@H](CCC(N)=O)NC(=O)[C@H](CC(C)C)NC(=O)[C@H](CC(C)C)NC(=O)[C@H](Cc1ccc(O)cc1)NC(=O)[C@]1(C)CCCC=CC[C@]2(CCCN2)C(=O)N[C@@H](CC2CC2)C(=O)N[C@@H](CC(C)C)C(=O)N1` (single isomer, unassigned) [PLL7-7 variant 1, H-PL3-Cpa-Leu-S5-Tyr-Leu-Leu-Gln-Asp-NHMe], the “% Retention” value in series [1] was determined as 84 ± 2%. This molecule also came in with a Papp at 5 h in “in vitro” of 0.4 ± 0.1 ×10⁻⁶ cm/s. The same molecule registered a chromatographic logD in series [2] of 1.8.
For `CNC(=O)[C@H](CC(=O)O)NC(=O)[C@H](Cc1c[nH]cn1)NC(=O)[C@H](CC(C)C)NC(=O)[C@H](CC(C)C)NC(=O)[C@H](CCCNC(=N)N)NC(=O)[C@]1(C)CCCC=CC[C@]2(CCCN2)C(=O)N[C@@H](CC(C)C)C(=O)N[C@@H](CC(C)C)C(=O)N1` (single isomer, unassigned) [PLL7-9 variant 1, H-PL3-Leu-Leu-S5-Arg-Leu-Leu-His-Asp-NHMe], the “% Retention” value in series [1] is given as 86 ± 2%. In “in vitro”, this molecule had an apparent permeability (Papp) at 5 h of no more than 0.1 ×10⁻⁶ cm/s. Further, in series [2], the chromatographic logD turned out to be 3.7. Also, the “CHI Log D compared to the parent ProLock stapled peptide” value in series [2] (result in words) was “surprisingly high”.

The term Papp denotes a coefficient for how fast a substance crosses the barrier. For orientation: chromatographic logD means lipophilicity estimated from chromatographic retention.
